How the values were obtained:
[1] = tested on: Escherichia coli expressing NDM-1 (CLB30016); format: cell-based; conditions: with imipenem 1 μg/ml; 95% inhibition of bacterial growth
Method in brief: (§1)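 Read-out is absorbance after 22–24 h at 35 °C, with MITC95 taken as the lowest inhibitor concentration that, alongside imipenem at 1 μg/ml, suppresses 95% of bacterial growth. Inocula came from saline-suspended colonies diluted 1:100 into 1.1× CAMHB.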

[2] = tested on: Serratia marcescens expressing IMP-1 (CL5741); format: cell-based; conditions: with imipenem 1 μg/ml; 95% inhibition of bacterial growth
Method in brief: as §1

[3] = tested on: Klebsiella pneumoniae expressing VIM-1 (IHMA599644); format: cell-based; conditions: with imipenem 1 μg/ml; 95% inhibition of bacterial growth
Method in brief: as §1

[4] = tested on: P. aeruginosa MB9799 (efflux-, IMP-1 plasmid); format: cell-based, Pseudomonas aeruginosa; conditions: efflux − (MB9799) strain; imipenem at 2 μg/mL; in the presence of a class A, C, D serine β-lactamase inhibitor closely related to relebactam
Method in brief: (§2)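 Isogenic P. aeruginosa PAO1 strains (efflux+ and multiple-efflux-pump-disrupted) carrying plasmid IMP-1, with inducible AmpC, tested by broth microdilution. Imipenem and/or ceftazidime fixed, usually at CLSI breakpoint, plus fixed class A/C β-lactamase inhibitor; titrated MBL inhibitor concentration restoring susceptibility recorded and compared between strains as efflux fold difference.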

[5] = tested on: P. aeruginosa MB9798 (efflux+, IMP-1 plasmid); conditions: for MB9798 MITC95 P. aeruginosa uM Efflux WT: efflux + (MB9798) strain, imipenem at 2 μg/mL, in the presence of a class A, C, D serine β-lactamase inhibitor closely related to relebactam; for Efflux ratio: fold difference between efflux+ (MB9798) and efflux− (MB9799) strains
Method in brief: as §2

[6] = target: VIM-2 (Escherichia coli, UniProt Q5U7L7); assay: biochemical; conditions: CCF2-FA fluorescence assay; read-out: VIM2 IC50
[7] = target: NDM-1 (Klebsiella pneumoniae, UniProt C7C422); assay: biochemical; format: biochemical; conditions: CCF2-FA fluorescence assay, 2 hours at 25° C.
Chain of NDM-1 (C7C422 whole entry, looked up, species assumed): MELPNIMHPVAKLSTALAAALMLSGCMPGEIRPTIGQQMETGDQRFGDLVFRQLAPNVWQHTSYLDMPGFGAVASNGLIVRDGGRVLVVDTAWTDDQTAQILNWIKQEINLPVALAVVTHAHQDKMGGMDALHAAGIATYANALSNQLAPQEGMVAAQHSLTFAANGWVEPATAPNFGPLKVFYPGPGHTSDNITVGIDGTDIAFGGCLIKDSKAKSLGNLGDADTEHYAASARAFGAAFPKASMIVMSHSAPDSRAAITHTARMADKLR
Method in brief: (§3)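 Each enzyme (final 1 pM NDM-1, 2 pM IMP-1, 30 pM VIM-1) was incubated with test inhibitor (20 μM to 0.00063 μM) and 1.25 μM CCF2-FA for 2 hours at 25° C in zinc-supplemented phosphate buffer, pH 7. Fluorescence at 460 nm was then read and IC50 fitted with four parameters.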

[8] = target: VIM-1 (Pseudomonas aeruginosa (strain ATCC 15692 / DSM 22644 / CIP 104116 / JCM 14847 / LMG 12228 / 1C / PRS 101 / PAO1), UniProt A0A0F7KYQ8); assay: biochemical; conditions: CCF2-FA fluorescence assay, 2 hours at 25° C.; read-out: VIM1 IC50
Method in brief: as §3

[9] = target: IMP-1 (Serratia marcescens, UniProt P52699); assay: biochemical; conditions: CCF2-FA fluorescence assay, 2 hours at 25° C.; read-out: IMP1 IC50
Chain of IMP-1 (P52699 whole entry, looked up, species assumed): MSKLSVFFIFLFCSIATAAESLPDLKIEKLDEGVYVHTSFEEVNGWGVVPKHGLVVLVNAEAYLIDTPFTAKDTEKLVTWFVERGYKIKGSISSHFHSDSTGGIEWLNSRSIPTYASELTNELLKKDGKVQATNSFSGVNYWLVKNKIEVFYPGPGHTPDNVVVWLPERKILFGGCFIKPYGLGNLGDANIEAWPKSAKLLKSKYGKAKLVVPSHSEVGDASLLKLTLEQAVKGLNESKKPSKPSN
Method in brief: as §3

SMILES	CLB30016 E. coli MITC95 NDM [1] [µM]	CL5741 S. marcescens MITC95 IMP [2] [µM]	IHMA599644 K. pneumoniae MITC95 VIM [3] [µM]	MB9799 MITC95 P. aeruginosa uM Efflux Mutant [4] [µM]	MB9798 MITC95 P. aeruginosa uM Efflux WT [5] [µM]	Efflux ratio [5]	IC50 [6] [nM]	IC50 [7] [nM]	IC50 [8] [nM]	IC50 [9] [nM]
NC(=O)C1CCN(c2ccc(S(=O)(=O)N[C@@H]3CCNC3)c(S(N)(=O)=O)c2-c2nnn[nH]2)C1 (stereo partly drawn) [Example 92, 1-{4-[(3R)-pyrrolidin-3-ylsulfamoyl]-3-sulfamoyl-2-(1H-tetrazol-5-yl)phenyl}pyrrolidine-3-carboxamide]	0.78	1.56	3.13	1.56	1.56	1.00	0.74	0.38	0.3	0.31
NC[C@@H](O)CNS(=O)(=O)c1ccc(N2CCC(C(N)=O)C2)c(-c2nn[nH]n2)c1S(N)(=O)=O (stereo partly drawn) [Example 118, 1-(4-(N—((R)-3-amino-2-hydroxypropyl)sulfamoyl)-3-sulfamoyl-2-(2H-tetrazol-5-yl)phenyl)pyrrolidine-3-carboxamide]	1.56	1.56	3.13	1.56	1.56	1.00	2.44	1.55	1.2	1.25
C[C@H](CN)NS(=O)(=O)c1ccc(N2CCC(CN)CC2)c(-c2nnn[nH]2)c1S(N)(=O)=O [Example 36, (R)-4-(4-(aminomethyl)piperidin-1-yl)-N1-(1-aminopropan-2-yl)-3-(1H-tetrazol-5-yl)benzene-1,2-disulfonamide]	0.65	1.30	1.30	0.65	0.91	1.40	2.6	0.45	0.1	1.84
NS(=O)(=O)c1c(S(=O)(=O)N[C@@H]2CCNC2)ccc(N2CCC(C(F)F)CC2)c1-c1nnn[nH]1 [Example 90, 4-[4-(difluoromethyl)piperidin-1-yl]-N1-[(3R)-pyrrolidin-3-yl]-3-(1H-tetrazol-5-yl)benzene-1,2-disulfonamide]	3.13	3.13	3.13	1.56	6.25	4.00	1.02	0.43	0.34	0.77
NCCC1CCN(c2ccc(S(=O)(=O)N[C@@H](CN)CO)c(S(N)(=O)=O)c2-c2nn[nH]n2)CC1 [Example 187, (S)-N1-(1-amino-3-hydroxypropan-2-yl)-4-(4-(2-aminoethyl)piperidin-1-yl)-3-(2H-tetrazol-5-yl)benzene-1,2-disulfonamide]	0.78	0.78	0.78	0.39	0.39	1.00	0.49	0.13	0.03	0.24
COC1(CO)CCN(c2ccc(S(=O)(=O)N[C@H](C)CN)c(S(N)(=O)=O)c2-c2nn[nH]n2)CC1 [Example 19, (R)-N1-(1-aminopropan-2-yl)-4-(4-(hydroxymethyl)-4-methoxypiperidin-1-yl)-3-(2H-tetrazol-5-yl)benzene-1,2-disulfonamide]	3.13	3.13	12.50	3.13	3.13	1.00	2.27	0.17	0.65	0.37
CC(=O)N[C@@H]1CCN(c2ccc(S(=O)(=O)N[C@@H]3CCNC3)c(S(N)(=O)=O)c2-c2nnn[nH]2)C1 [Example 95, N-[(3R)-1-{4-[(3R)-pyrrolidin-3-ylsulfamoyl]-3-sulfamoyl-2-(1H-tetrazol-5-yl)phenyl}pyrrolidin-3-yl]acetamide]	6.25	6.25	12.50	3.13	6.25	2.00	6.09	4.31	1.42	1.55
NS(=O)(=O)c1c(S(=O)(=O)N[C@@H]2CCNC2)ccc(N2CCCN(CCO)CC2)c1-c1nnn[nH]1 [Example 69, 4-[4-(2-hydroxyethyl)-1,4-diazepan-1-yl]-N1-[(3R)-pyrrolidin-3-yl]-3-(1H-tetrazol-5-yl)benzene-1,2-disulfonamide]	0.78	3.13	1.56	3.13	12.50	4.00	13.3	16.2	1.6	29.6
NC[C@@H](O)CNS(=O)(=O)c1ccc(N2CCN(CCO)CC2)c(-c2nnn[nH]2)c1S(N)(=O)=O [Example 47, (R)-N1-(3-amino-2-hydroxypropyl)-4-(4-(2-hydroxyethyl)piper-azin-1-yl)-3-(1H-tetrazol-5-yl)benzene-1,2-disulfonamide]	0.10	0.10	0.78	0.78	1.56	2.00	7.34	3.94	5.02	4.57
CN1CCOC2(C1)CN(c1ccc(S(=O)(=O)N[C@@H]3CCNC3)c(S(N)(=O)=O)c1-c1nnn[nH]1)C2 [Example 115, 4-(8-methyl-5-oxa-2,8-diazaspiro[3.5]non-2-yl)-N1-[(3R)-pyrrolidin-3-yl]-3-(1H-tetrazol-5-yl)benzene-1,2-disulfonamide]	0.39	0.78	3.13	0.78	12.50	16.00	19.2	6.14	2.1	6.06
NS(=O)(=O)c1c(S(=O)(=O)N[C@@H]2CCNC2)ccc(N2CCN(C(=O)CO)CC2)c1-c1nnn[nH]1 [Example 109, 4-[4-(hydroxyacetyl)piperazin-1-yl]-N1-[(3R)-pyrrolidin-3-yl]-3-(1H-tetrazol-5-yl)benzene-1,2-disulfonamide]	3.13	3.13	6.25	3.13	3.13	1.00	1.9	0.51	0.43	2.21

— patent US11207312B2, “Metallo-beta-lactamase inhibitors and methods of use thereof” (priority 2017, dated 2021)
